Bridges are numbered along the chain shown (N, C = ends). Where no end group is shown, it is not given here. [ ]: non-standard residue; d: D form.
Legend:
[1] = tested on: Human placental-derived vascular endothelial cells; assay: Binding and internalization in angiogenic vascular endothelial cells; settings: acid wash
Description: Human placental-derived vascular endothelial cells were used to assay for cell binding of the somatostatin analog, ^125I-JIC-2D. The radioligand, a somatostatin analog, ^125I-JIC-2D, was made by solid phase peptide synthesis as described in U.S. Patent No. 5,597,894. This peptide has an amino acid sequence of the following: D-Lys-D-Tyr-D-Lys-D-Tyr-D-Lys-c[Cys-Phe-D-Trp-Lys-Thr-Cys]-Thr-NH2. The cells were obtained by growing discs of human placental veins in fibrinclots for 14 days. […] These discs and their angiogenic sprouts are harvested mechanically and dissociated by vortexing. The vein discs are then discarded and the endothelial cells pooled. Cells were harvested, counted with a hemocytometer, and resuspended in binding buffer (Minimum Essential Medium (MEM), 10 mM Hepes, 0.01 % BSA). A standard assay used 500,000 cells in 1 ml of binding buffer. […] At the termination of the experiment, the incubation medium was removed, the cells were rinsed twice with Hanks balanced salt solution (HBSS), and the radioactivity in the cells determined using a gamma counter. This level of radioactivity represents total binding, which includes both membrane-bound and internalized fractions. Specific binding was determined by calculating the difference in the levels of measured radioactivity without the unlabeled competitor minus the radioactivity with the unlabeled competitor. […]

IMR-32 cells = assay: Nuclear translocation (Percoll density gradient fractionation); assay type: cell-based, human
Description: The cells were washed twice in media at 4°C and resuspended in cold isotonic sucrose. The labeled cells were passed through a ball-bearing homogenizer three times to disrupt cell membranes while leaving approximately 95% of the cell nuclei intact, according to the method of Balch et al., Arch. Biochem. Biophys., vol. 240, p. […] The cell homogenate was mixed with Percoll to give a final concentration of […] Percoll and spun at 20,400 rpm in a Beckman 40.2 rotor for 45 min to generate a density gradient. Density marker beads (Pharmacia) were used to indicate density levels in the tube. The contents of the tube were fractionated in an ISCO Density Gradient Fractionator. The resulting tubes were assayed for content of radiolabeled somatostatin or analogs, DNA to indicate nuclei, protein, the plasma membrane marker 5'-nucleotidase, and the lysosome marker N-acetylglucosaminidase. The usual assumption was made that the radioactivity measured in fractions rich in a certain cell component was in fact associated with that component; e.g., the radioactivity measured in a fraction rich in plasma membrane was due to association of the radiolabeled compound with the plasma membrane.
The density distribution is represented by the triangles in the figures. Nuclear fractions were found in the density gradient represented by Tubes 12-15, and membrane fractions by Tubes 0-6. […] Radiodecaying nuclei will then ionize DNA, resulting in cellular damage.

For “[dK][dY][dK][dY][dK]CF[dW]KTCT-NH2 (disulfide 6-11) [^125I-JIC-2D]”, the binding and internalization [1] was “the vast majority of the radioligand was internalized into the cell”.
“^125I-somatostatin: radiolabeled native somatostatin (AGCKNFFWKTFTSC; disulfide 3-14 (inferred); ends not checked; also: 125I label, position not given here; UniProt P61278 103-116, looked up)” was tested, and the “cellular distribution (membrane vs nuclear fractions)” value (IMR-32 cells; 1 hr) was “both membrane binding and small amounts of nuclear binding”, the “cellular distribution (membrane vs nuclear fractions)” value (IMR-32 cells; 4 hr) was “the plasma membrane binding appeared to have peaked and the nuclear fraction was dissipating” and the “cellular distribution (membrane vs nuclear fractions)” value (IMR-32 cells; 24 hr) was “essentially no plasma membrane or nuclear binding was seen”.

— patent EP0961591B1, “METHOD TO ENHANCE TISSUE AC[…] RADIOLABELED COMPOUNDS” (BOARD OF SUPERVISORS OF LOUISIANA STATE UNIVERSITY AND …, priority 1997, dated 1999)
